These results are taken from patent publication US7964624B1, “Inhibitors of serine proteases” (priority 2005, dated 2011).

The target in assay [1] is T1, full-length hepatitis C viral protein NS3•4A (Hepatitis C virus genotype 1a, UniProt P27958).
T1 construct: hexa-histidine (N); made in house; host or cells: Sf9 insect cells (baculovirus, pVL1392)
Put plainly: biochemical. Also on record: species or system HCV sub-type strain 1a. Particulars: Enzyme Assay 2 (HCV NS3 Peptide Cleavage Assay) activity, apparent Ki class.

A further assay concerns the target T2, HCV NS3 protease domain (Hepatitis C virus genotype 1b, UniProt Q9WMX2).
T2 construct: The first 181 amino acids of NS3 (residues 1027-1207 of the viral polyprotein); hexa-histidine (C); made in house; host or cells: E. coli BL21/DE3 pLysS
Put plainly: biochemical. To be noted: Enzyme Assay 1 (HCV NS3 Protease Domain Peptide Cleavage Assay) activity, apparent Ki class.

pKi: −log10 of the molar value. A value given as a limit tells only on which side of the number the result lay.

As for `CCC[C@H](NC(=O)[C@@H]1C[C@]2(CC(c3cccc(Cl)c3)=NO2)CN1C(=O)[C@@H](NC(=O)CC1(O)CCCCC1)C(C)(C)C)C(=O)C(=O)NC1CC1` [Compound 233], the pKi in assay [1] is more than 7.00; on HCV NS3 protease domain, 6.30 to 7.00.

Turning to `CCC[C@H](NC(=O)[C@@H]1C[C@]2(CC(c3cccc(Cl)c3)=NO2)CN1C(=O)[C@@H](NC(=O)[C@@H]1CCC(=O)N1C(C)C)C(C)(C)C)C(=O)C(=O)NC1CC1` [Compound 241], the pKi was 6.30 to 7.00 in assay [1] and less than 6.30 at HCV NS3 protease domain.

Take `CCC[C@H](NC(=O)[C@@H]1C[C@]2(CC(c3cccc(Cl)c3)=NO2)CN1C(=O)CCCC(=O)Nc1ccc(C)cc1C)C(=O)C(=O)NC1CC1` [Compound 246]: the negative-log Ki (pKi) (in assay [1]; on HCV NS3 protease domain) was less than 6.30 each time.

With `CCC[C@H](NC(=O)[C@@H]1C[C@]2(CC(c3cccc(Cl)c3)=NO2)CN1C(=O)c1ccc(Cl)cc1Nc1ccc(OC)nc1)C(=O)C(=O)NC1CC1` [Compound 248], the pKi (in assay [1]; on HCV NS3 protease domain) was less than 6.30 each time.

Take `CCC[C@H](NC(=O)[C@@H]1C[C@]2(CC(c3cccc(Cl)c3)=NO2)CN1C(=O)[C@@H](NC(=O)C=C1CCCCC1)C(C)(C)C)C(=O)C(=O)NC1CC1` [Compound 252]: the values for the pKi (in assay [1]; on HCV NS3 protease domain) were more than 7.00 and 6.30 to 7.00, respectively.

`CCC[C@H](NC(=O)[C@@H]1C[C@]2(CC(c3cccc(Cl)c3)=NO2)CN1C(=O)[C@@H](NC(=O)CC1CCCCC1)C(C)(C)C)C(=O)C(=O)N(C)C` [Compound 253]: the pKi (in assay [1]; at HCV NS3 protease domain) was less than 6.30 throughout.

`CCC[C@H](NC(=O)[C@@H]1C[C@]2(CC(c3cccc(Cl)c3)=NO2)CN1C(=O)[C@@H](NC(=O)CC1CCCCC1)C(C)(C)C)C(=O)C(=O)N[C@@H](C)c1cccc(OC)c1` [Compound 255]: the pKi (in assay [1]; at HCV NS3 protease domain) was 6.30 to 7.00 each time.

`CCC[C@H](NC(=O)[C@@H]1C[C@]2(CC(c3cccc(Cl)c3)=NO2)CN1C(=O)[C@@H](NC(=O)CC1CCCCC1)C(C)(C)C)C(=O)C(=O)NCC1CC1` [Compound 265]: the results for the pKi (in assay [1]; on HCV NS3 protease domain) were 6.30 to 7.00 and less than 6.30, respectively.

`C#CC[C@H](C(=O)N[C@H](C(=O)N1C[C@@]2(CC(c3cccc(Cl)c3)=NO2)C[C@H]1C(=O)N[C@@H](CCC)C(=O)C(=O)NC1CC1)C(C)(C)C)C1CCCCC1` [Compound 266]: the pKi (in assay [1]; at HCV NS3 protease domain) was 6.30 to 7.00 each time.

With `CC(C)(C)[C@H](NC(=O)CC1CCCCC1)C(=O)N1C[C@@]2(CC(c3cccc(Cl)c3)=NO2)C[C@H]1C(=O)NC(CC1CCC1)C(=O)C(=O)NCC(F)(F)F` (some centres unmarked) [Compound 268], the pKi in assay [1] is less than 6.30; at HCV NS3 protease domain it was 6.30 to 7.00.

For `C=C[C@@H]1C[C@]1(NC(=O)[C@@H]1C[C@]2(CC(c3cccc(Cl)c3)=NO2)CN1C(=O)[C@@H](NC(=O)O[C@H]1CCOC1)C(C)(C)C)C(=O)O` [Compound 269], the pKi (in assay [1]; at HCV NS3 protease domain) was less than 6.30 each time.

Take `CCC[C@H](NC(=O)[C@@H]1C[C@]2(CC(c3cccc(Cl)c3)=NO2)CN1C(=O)[C@@H](NC(=O)[C@@H]1C[C@H]1c1ccccc1)C(C)(C)C)C(=O)C(=O)NC1CC1` [Compound 271]: the pKi in assay [1] was more than 7.00; on HCV NS3 protease domain it was 6.30 to 7.00.

With `CCC[C@H](NC(=O)[C@@H]1C[C@]2(CC(c3cccc(Cl)c3)=NO2)CN1C(=O)[C@@H](NC(=O)CC1CCCCC1)C(C)(C)C)C(=O)C(=O)NC(C)C` [Compound 275], the pKi (in assay [1]; on HCV NS3 protease domain) was 6.30 to 7.00 throughout.

Turning to `CCC[C@H](NC(=O)[C@@H]1C[C@]2(CC(c3cccc(Cl)c3)=NO2)CN1C(=O)[C@@H](NC(=O)CC1CCCCC1)C(C)(C)C)C(=O)C(=O)NC[C@H]1CCCO1` [Compound 277], the results for the pKi (in assay [1]; on HCV NS3 protease domain) were 6.30 to 7.00 and less than 6.30, respectively.

Consider `CCC[C@H](NC(=O)[C@@H]1C[C@]2(CC(c3cccc(Cl)c3)=NO2)CN1C(=O)[C@@H](CC(=O)NC(C)C)C(C)C)C(=O)C(=O)NC1CC1` [Compound 280], for which the pKi (in assay [1]; on HCV NS3 protease domain) was less than 6.30 throughout.

Regarding `COc1cc(OC)c(C2=NO[C@]3(C2)C[C@@H](C(=O)NC(CC2CCC2)C(=O)C(=O)NC2CC2)N(C(=O)[C@@H](NC(=O)CC2CCOCC2)C(C)(C)C)C3)cc1Cl` (some centres unmarked) [Compound 282], the values for the pKi (in assay [1]; at HCV NS3 protease domain) were 6.30 to 7.00 and less than 6.30, respectively.

`CCC[C@H](NC(=O)[C@@H]1C[C@]2(CC(c3cccc(Cl)c3)=NO2)CN1C(=O)[C@@H](NC(=O)[C@@H](C)C1CCCCC1)C(C)(C)C)C(=O)C(=O)NC1CC1` [Compound 284]: the pKi (in assay [1]; on HCV NS3 protease domain) was 6.30 to 7.00 throughout.

Consider `CCC[C@H](NC(=O)[C@@H]1C[C@]2(CC(c3cccc(Cl)c3)=NO2)CN1C(=O)[C@H](Cc1ccccc1C(F)(F)F)NC(=O)CC1CCCCC1)C(=O)C(=O)NC1CC1` [Compound 289], for which the negative logarithm of the Ki (pKi) in assay [1] was 6.30 to 7.00; on HCV NS3 protease domain it was less than 6.30.

Take `CCC[C@H](NC(=O)[C@@H]1C[C@]2(CC(c3cncc(Cl)c3)=NO2)CN1C(=O)[C@@H](NC(=O)CC1CCCCC1)C(C)(C)C)C(=O)C(=O)NC1CC1` [Compound 292]: the values for the pKi (in assay [1]; at HCV NS3 protease domain) were more than 7.00 and 6.30 to 7.00, respectively.

`CCC[C@H](NC(=O)[C@@H]1C[C@]2(CC(c3cccc(Cl)c3)=NO2)CN1C(=O)[C@@H](NC(=O)CC1CCCCC1)C(C)(C)C)C(=O)C(=O)Nc1ccon1` [Compound 293]: the pKi (in assay [1]; on HCV NS3 protease domain) was less than 6.30 each time.

Consider `CCC[C@H](NC(=O)[C@@H]1C[C@]2(CC(c3cccc(Cl)c3)=NO2)CN1C(=O)[C@@H](NC(=O)CC1CCCCC1)C(C)(C)C)C(=O)C(=O)N[C@H](C)c1ccccc1` [Compound 296], for which the negative-log Ki (pKi) (in assay [1]; on HCV NS3 protease domain) was less than 6.30 in each case.

As to `CCC[C@H](NC(=O)[C@@H]1C[C@]2(CC(c3cccc(Cl)c3)=NO2)CN1C(=O)[C@@H](NC(=O)CC1CCCCC1)C(C)(C)C)C(=O)C(=O)NCc1cccc(-n2cccn2)c1` [Compound 298], the pKi (in assay [1]; at HCV NS3 protease domain) was 6.30 to 7.00 in each case.

In the case of `CCC[C@H](NC(=O)[C@@H]1C[C@]2(CC(c3cccc(Cl)c3)=NO2)CN1C(=O)[C@@H](NC(=O)CC1CCCCC1)C(C)(C)C)C(=O)C(=O)NC(CC)CC` [Compound 300], the pKi (in assay [1]; at HCV NS3 protease domain) was 6.30 to 7.00 throughout.

Take `CCC[C@H](NC(=O)[C@@H]1C[C@]2(CC(c3cccc(Cl)c3)=NO2)CN1C(=O)[C@@H](NC(=O)CC1CCCCC1)C(C)(C)C)C(=O)C(=O)NCCc1c[nH]c2ccc(OC)cc12` [Compound 302]: the pKi (in assay [1]; at HCV NS3 protease domain) was 6.30 to 7.00 in each case.

Consider `CCC[C@H](NC(=O)[C@@H]1C[C@]2(CC(c3cccc(Cl)c3)=NO2)CN1C(=O)[C@@H](NC(=O)CC1CCN(C(C)=O)CC1)C(C)(C)C)C(=O)C(=O)NC1CC1` [Compound 304], for which the figures for the pKi (in assay [1]; at HCV NS3 protease domain) were more than 7.00 and 6.30 to 7.00, respectively.

In the case of `CCC[C@H](NC(=O)[C@@H]1C[C@]2(CC(c3cc(Cl)c(OC)cc3OC)=NO2)CN1C(=O)[C@@H](NC(=O)CC1CCCCC1)C(C)(C)C)C(=O)C(=O)NC1CC1` [Compound 307], the pKi in assay [1] was more than 7.00; on HCV NS3 protease domain, 6.30 to 7.00.

As for `CCC[C@H](NC(=O)[C@@H]1C[C@]2(CC(c3cccc(Cl)c3)=NO2)CN1C(=O)CCNS(=O)(=O)c1ccc(NC(C)=O)cc1)C(=O)C(=O)NC1CC1` [Compound 309], the pKi (in assay [1]; on HCV NS3 protease domain) was less than 6.30 throughout.

Regarding `CCC[C@H](NC(=O)[C@@H]1C[C@]2(CC(c3cnc(OC)c(Cl)c3)=NO2)CN1C(=O)[C@@H](NC(=O)CC1CCCCC1)C(C)(C)C)C(=O)C(=O)NC1CC1` [Compound 312], the pKi (in assay [1]; on HCV NS3 protease domain) was more than 7.00 throughout.

For the compound `CCC[C@H](NC(=O)[C@@H]1C[C@]2(CC(c3cc(Cl)c4c(c3)OCCN4C)=NO2)CN1C(=O)[C@@H](NC(=O)CC1CCCCC1)C(C)(C)C)C(=O)C(=O)NC1CC1` [Compound 315], the pKi (in assay [1]; at HCV NS3 protease domain) was more than 7.00 throughout.

Consider `CC(C)(C)OC(=O)N[C@H]1CCCCC/C=C\[C@@H]2C[C@@]2(C(=O)O)NC(=O)[C@@H]2C[C@]3(CC(C(=O)c4ccccc4)=NO3)CN2C1=O` [Compound 320], for which the pKi (in assay [1]; on HCV NS3 protease domain) was less than 6.30 throughout.

On to `CCC[C@H](NC(=O)[C@@H]1C[C@]2(CC(c3cc(Cl)cc(OC)c3OC)=NO2)CN1C(=O)[C@@H](NC(=O)CC1CCCCC1)C(C)(C)C)C(=O)C(=O)NC1CC1` [Compound 321], for which the negative logarithm of the Ki (pKi) in assay [1] is more than 7.00; on HCV NS3 protease domain, 6.30 to 7.00.

On to `CCC[C@H](NC(=O)[C@@H]1C[C@]2(CC(c3cc(Cl)c(OC)cc3OC)=NO2)CN1C(=O)[C@@H](NC(=O)CC1CCOCC1)C(C)(C)C)C(=O)C(=O)NC1CC1` [Compound 326], for which the pKi (in assay [1]; at HCV NS3 protease domain) was 6.30 to 7.00 throughout.

For `CCC[C@H](NC(=O)[C@@H]1C[C@]2(CC(c3cccc(Cl)c3)=NO2)CN1C(=O)c1cccc(S(=O)(=O)N2CCc3ccccc3C2)c1)C(=O)C(=O)NC1CC1` [Compound 328], the pKi (in assay [1]; at HCV NS3 protease domain) was less than 6.30 throughout.

`CCC[C@H](NC(=O)[C@@H]1C[C@]2(CC(c3cccc(Cl)c3)=NO2)CN1C(=O)[C@H](Cc1ccc(OC(C)C)cc1)NC(C)=O)C(=O)C(=O)NC1CC1` [Compound 332]: the values for the pKi (in assay [1]; on HCV NS3 protease domain) were 6.30 to 7.00 and less than 6.30, respectively.

Regarding `CCC[C@H](NC(=O)[C@@H]1C[C@]2(CC(c3cccc(Cl)c3)=NO2)CN1C(=O)[C@H](Cc1csc2ccccc12)NC(=O)CC1CCCCC1)C(=O)C(=O)NC1CC1` [Compound 336], the pKi (in assay [1]; on HCV NS3 protease domain) was less than 6.30 throughout.

For the compound `CCC[C@H](NC(=O)[C@@H]1C[C@]2(CC(c3cccc(Cl)c3)=NO2)CN1C(=O)[C@H](Cc1ccccc1F)NC(=O)CC1CCCCC1)C(=O)C(=O)NC1CC1` [Compound 338], the pKi was 6.30 to 7.00 in assay [1] and less than 6.30 on HCV NS3 protease domain.

Regarding `CCC[C@H](NC(=O)[C@@H]1C[C@]2(CC(c3cccc(Cl)c3)=NO2)CN1C(=O)[C@@H](NC(=O)Cc1cncc(Br)c1)C(C)(C)C)C(=O)C(=O)NC1CC1` [Compound 339], the negative-log Ki (pKi) in assay [1] was more than 7.00; at HCV NS3 protease domain, 6.30 to 7.00.
